± gives the expanded uncertainty stated by the source.
Columns and labels:
[1] = Molar enthalpy of transition or fusion; conditions: Crystal; DSC
[2] = Crystal; DTA

## C[C@H]([C@@H](O)c1ccccc1)N(C)C [(+)-N-methylephedrine]
[1]
  Molar enthalpy of transition or fusion: 7.3 ± 0.208 kcal/mol
[2]
  Normal melting temperature: 86.60 ± 2 °C

From the NIST ThermoML archive (doi:10.1021/je020176b)
